Our source for the EC50 values is US20240124491A1, “METHODS AND COMPOUNDS FOR TREATING FRIEDREICH'S ATAXIA” (Design Therapeutics, Inc., priority 2021, published 2024).

The experiment has as its system human FXN. The experiment is described as follows: EC50 assay: FXN mRNA expression by qRT-PCR in GM15850 cells after 48 hrs compound treatment. In kind it is cell-based. The settings on record: Homo sapiens, 48 hrs incubation, hFXN expression normalized to hGAPDH (qRT-PCR), read-out: EC50 WT (nM, 48 hr). The method in brief:
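FXN transcript, normalized to GAPDH by TaqMan qRT-PCR, read out after 48 hrs of compound on GM15850 cells plated at 150,000 per well. Dosing used five 3-fold steps from 150 nM final, vehicle 0.01% DMSO.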

Each structure is given as a SMILES string.

`COCCOCCOCCOCCOCCOCCOCCOCCOCCOCCOCCC(=O)Nc1ccc(C2=N[C@@H](CC(=O)N3CCC(C#CC#CC4CCN(CCOCCOCCOCCOCCNC(=O)CCNC(=O)c5nc(NC(=O)CCNC(=O)c6cc(NC(=O)c7nc(NC(=O)CCNC(=O)c8cc(NC(=O)c9nccn9C)cn8C)cn7C)cn6C)cn5C)CC4)CC3)c3nnc(C)n3-c3sc(C)c(C)c32)cc1` [Compound 120]: the EC50 (usually the midpoint of the concentration-response curve) fell in the range of 100 to 500 nM.

In the case of `Cc1sc2c(c1C)C(c1ccc(NC(=O)COCCOCCOCCN3CCN(CC4CCN(C)CC4)CC3)cc1)=N[C@@H](CC(=O)N1CCC(C#CC#CC3CCN(CCOCCOCCOCCOCCNC(=O)CCNC(=O)c4nc(NC(=O)CCNC(=O)c5cc(NC(=O)c6nc(NC(=O)CCNC(=O)c7cc(NC(=O)c8nccn8C)cn7C)cn6C)cn5C)cn4C)CC3)CC1)c1nnc(C)n1-2` [Compound 121], the EC50 lay in the range of 100 to 500 nM.

On to `Cc1sc2c(c1C)C(c1ccc(Cl)cc1)=N[C@@H](CC(=O)N1CCC(C#CC#CCN(CCOCCOCCOCCOCCOCCNC(=O)CCNC(=O)c3nc(NC(=O)CCNC(=O)c4cc(NC(=O)c5nc(NC(=O)CCNC(=O)c6cc(NC(=O)c7nccn7C)cn6C)cn5C)cn4C)cn3C)CC(O)COCC(O)CO)CC1)c1nnc(C)n1-2` (stereo partly drawn) [Compound 122], for which the EC50 lay within 100 to 500 nM.

On to `Cc1sc2c(c1C)C(c1ccc(Cl)cc1)=N[C@@H](CC(=O)Nc1ccc(N3CCC(N4CCN(CCOCCOCCOCCOCCOCCOCCNC(=O)CCNC(=O)c5nc(NC(=O)CCNC(=O)c6cc(NC(=O)c7nc(NC(=O)CCNC(=O)c8cc(NC(=O)c9nccn9C)cn8C)cn7C)cn6C)cn5C)CC4)CC3)nc1)c1nnc(C)n1-2` [Compound 124], for which the EC50 was below 100 nM.

Consider `Cc1sc2c(c1C)C(c1ccc(Cl)cc1)=N[C@@H](CC(=O)Nc1cncc(N3CCC(N4CCN(CCOCCOCCOCCOCCOCCOCCNC(=O)CCNC(=O)c5nc(NC(=O)CCNC(=O)c6cc(NC(=O)c7nc(NC(=O)CCNC(=O)c8cc(NC(=O)c9nccn9C)cn8C)cn7C)cn6C)cn5C)CC4)CC3)c1)c1nnc(C)n1-2` [Compound 125], for which the EC50 is below 100 nM.

Regarding `Cc1sc2c(c1C)C(c1ccc(Cl)cc1)=N[C@@H](CC(=O)N1CC(C#CC#CC3CN(CCOCCOCCOCCOCCNC(=O)CCNC(=O)c4nc(NC(=O)CCNC(=O)c5cc(NC(=O)c6nc(NC(=O)CCNC(=O)c7cc(NC(=O)c8nccn8C)cn7C)cn6C)cn5C)cn4C)C3)C1)c1nnc(C)n1-2` [Compound 126], the EC50 is below 100 nM.

For the compound `Cc1sc2c(c1C)C(c1ccc(Cl)cc1)=N[C@@H](CC(=O)N1CC(C#CC#CC3CN(CCOCCOCCOCCOCCOCCOCCNC(=O)CCNC(=O)c4nc(NC(=O)CCNC(=O)c5cc(NC(=O)c6nc(NC(=O)CCNC(=O)c7cc(NC(=O)c8nccn8C)cn7C)cn6C)cn5C)cn4C)C3)C1)c1nnc(C)n1-2` [Compound 127], the EC50 was below 100 nM.

Regarding `Cc1sc2c(c1C)C(c1ccc(Cl)cc1)=N[C@@H](CC(=O)NC(C)(C)C#CC#CCNCCOCCOCCOCCOCCOCCOCCNC(=O)CCNC(=O)c1nc(NC(=O)CCNC(=O)c3cc(NC(=O)c4nc(NC(=O)CCNC(=O)c5cc(NC(=O)c6nccn6C)cn5C)cn4C)cn3C)cn1C)c1nnc(C)n1-2` [Compound 130], the EC50 is below 100 nM.

In the case of `Cc1c(C(=O)NCCN2CCN(C)CC2)sc2c1C(c1ccc(Cl)cc1)=N[C@@H](CC(=O)N1CCC(C#CC#CC3CCN(CCOCCOCCOCCOCCNC(=O)CCNC(=O)c4nc(NC(=O)CCNC(=O)c5cc(NC(=O)c6nc(NC(=O)CCNC(=O)c7cc(NC(=O)c8nccn8C)cn7C)cn6C)cn5C)cn4C)CC3)CC1)c1nnc(C)n1-2` [Compound 131], the EC50 was in the range of 100 to 500 nM.

Consider `COCCOCCOCCOCCOCCOCCOCCOCCOCCOCCOCCNC(=O)c1sc2c(c1C)C(c1ccc(Cl)cc1)=N[C@@H](CC(=O)N1CCC(C#CC#CC3CCN(CCOCCOCCOCCOCCNC(=O)CCNC(=O)c4nc(NC(=O)CCNC(=O)c5cc(NC(=O)c6nc(NC(=O)CCNC(=O)c7cc(NC(=O)c8nccn8C)cn7C)cn6C)cn5C)cn4C)CC3)CC1)c1nnc(C)n1-2` [Compound 133], for which the 50% effective concentration (EC50) was 100 to 500 nM.

As for `Cc1c(C(=O)N2CCC(C#CC#CC3CCN(CCOCCOCCOCCOCCNC(=O)CCNC(=O)c4nc(NC(=O)CCNC(=O)c5cc(NC(=O)c6nc(NC(=O)CCNC(=O)c7cc(NC(=O)c8nccn8C)cn7C)cn6C)cn5C)cn4C)CC3)CC2)sc2c1C(c1ccc(Cl)cc1)=N[C@@H](CC(=O)NCCN1CCN(C)CC1)c1nnc(C)n1-2` [Compound 134], the EC50 lay in the range of 100 to 500 nM.

Take `Cc1cc(F)cc(C)c1Oc1ccc(C(C)(C)O)cc1-c1cn(C)c(=O)c2[nH]c(C(=O)N3CCC(C#CC#CC4CCN(CCOCCOCCOCCOCCNC(=O)CCNC(=O)c5nc(NC(=O)CCNC(=O)c6cc(NC(=O)c7nc(NC(=O)CCNC(=O)c8cc(NC(=O)c9nccn9C)cn8C)cn7C)cn6C)cn5C)CC4)CC3)cc12` [Compound 135]: the concentration for a half-maximal effect (EC50) lay within 100 to 500 nM.

In the case of `CC(=O)Nc1c(O[C@@H](C)c2ccccc2)cc(C=O)c(N2CCC(C#CC#CC3CCN(CCOCCOCCOCCOCCNC(=O)CCNC(=O)c4nc(NC(=O)CCNC(=O)c5cc(NC(=O)c6nc(NC(=O)CCNC(=O)c7cc(NC(=O)c8nccn8C)cn7C)cn6C)cn5C)cn4C)CC3)CC2)c1F` [Compound 136], the EC50 was above 500 nM.

Consider `Cc1sc2c(c1C)C(c1ccc(Cl)cc1)=N[C@@H](CC(=O)N1CCC(C#CC#CC3CCN(CCOCCOCCNC(=O)CCNC(=O)c4nc(NC(=O)CCNC(=O)c5cc(NC(=O)c6nc(NC(=O)CCNC(=O)c7cc(NC(=O)c8nccn8C)cn7C)cn6C)cn5C)cn4C)CC3)CC1)c1nnc(C)n1-2` [Compound 138], for which the EC50 was below 100 nM.

With `Cc1sc2c(c1C)C(c1ccc(Cl)cc1)=N[C@@H](CC(=O)N1CCC(C#CC#CC3CCN(CCOCCOCCOCCNC(=O)CCNC(=O)c4nc(NC(=O)CCNC(=O)c5cc(NC(=O)c6nc(NC(=O)CCNC(=O)c7cc(NC(=O)c8nccn8C)cn7C)cn6C)cn5C)cn4C)CC3)CC1)c1nnc(C)n1-2` [Compound 139], the EC50 was below 100 nM.

Regarding `Cc1sc2c(c1C)C(c1ccc(Cl)cc1)=N[C@@H](CC(=O)N1CCC(C#CC#CC3CCN(CCOCCOCCOCCOCCOCCNC(=O)CCNC(=O)c4nc(NC(=O)CCNC(=O)c5cc(NC(=O)c6nc(NC(=O)CCNC(=O)c7cc(NC(=O)c8nccn8C)cn7C)cn6C)cn5C)cn4C)CC3)CC1)c1nnc(C)n1-2` [Compound 140], the EC50 is below 100 nM.

For the compound `Cc1sc2c(c1C)C(c1ccc(Cl)cc1)=N[C@@H](CC(=O)N1CCC(C#CC#CC3CCN(CCOCCOCCOCCOCCOCCOCCNC(=O)CCNC(=O)c4nc(NC(=O)CCNC(=O)c5cc(NC(=O)c6nc(NC(=O)CCNC(=O)c7cc(NC(=O)c8nccn8C)cn7C)cn6C)cn5C)cn4C)CC3)CC1)c1nnc(C)n1-2` [Compound 141], the EC50 is below 100 nM.

Regarding `Cc1sc2c(c1C)C(c1ccc(Cl)cc1)=N[C@@H](CC(=O)N1CCC(C#CC#CC3CCN(CCOCCOCCOCCOCCOCCOCCOCCNC(=O)CCNC(=O)c4nc(NC(=O)CCNC(=O)c5cc(NC(=O)c6nc(NC(=O)CCNC(=O)c7cc(NC(=O)c8nccn8C)cn7C)cn6C)cn5C)cn4C)CC3)CC1)c1nnc(C)n1-2` [Compound 142], the EC50 was below 100 nM.

Regarding `CC(=O)N1c2ccc(-c3ccc(C(=O)N4CCC(C#CC#CC5CCN(CCOCCOCCNC(=O)CCNC(=O)c6nc(NC(=O)CCNC(=O)c7cc(NC(=O)c8nc(NC(=O)CCNC(=O)c9cc(NC(=O)c%10nccn%10C)cn9C)cn8C)cn7C)cn6C)CC5)CC4)cc3)cc2C(Nc2ccc(Cl)cc2)C[C@@H]1C` (stereo partly drawn) [Compound 144], the EC50 was below 100 nM.

Turning to `CC(=O)N1c2ccc(-c3ccc(C(=O)N4CCC(C#CC#CC5CCN(CCOCCOCCOCCOCCNC(=O)CCNC(=O)c6nc(NC(=O)CCNC(=O)c7cc(NC(=O)c8nc(NC(=O)CCNC(=O)c9cc(NC(=O)c%10nccn%10C)cn9C)cn8C)cn7C)cn6C)CC5)CC4)cc3)cc2C(Nc2ccc(Cl)cc2)C[C@@H]1C` (stereo partly drawn) [Compound 145], the EC50 was below 100 nM.

For `CC(=O)N1c2ccc(-c3ccc(C(=O)N4CCC(C#CC#CC5CCN(CCOCCOCCOCCOCCOCCOCCNC(=O)CCNC(=O)c6nc(NC(=O)CCNC(=O)c7cc(NC(=O)c8nc(NC(=O)CCNC(=O)c9cc(NC(=O)c%10nccn%10C)cn9C)cn8C)cn7C)cn6C)CC5)CC4)cc3)cc2C(Nc2ccc(Cl)cc2)C[C@@H]1C` (stereo partly drawn) [Compound 150], the EC50 is below 100 nM.

For the compound `Cc1sc2c(c1C)C(c1ccc(Cl)cc1)=N[C@@H](CC(=O)NC1CCN(C(C)(C)C#CC#CC3CCN(CCOCCOCCOCCOCCOCCNC(=O)CCNC(=O)c4nc(NC(=O)CCNC(=O)c5cc(NC(=O)c6nc(NC(=O)CCNC(=O)c7cc(NC(=O)c8nccn8C)cn7C)cn6C)cn5C)cn4C)CC3)CC1)c1nnc(C)n1-2` [Compound 151], the EC50 is below 100 nM.

`Cc1sc2c(c1C)C(c1ccc(Cl)cc1)=N[C@@H](CC(=O)NC1CCN(CC#CC#CC3CCN(CCOCCOCCNC(=O)CCNC(=O)c4nc(NC(=O)CCNC(=O)c5cc(NC(=O)c6nc(NC(=O)CCNC(=O)c7cc(NC(=O)c8nccn8C)cn7C)cn6C)cn5C)cn4C)CC3)CC1)c1nnc(C)n1-2` [Compound 155]: the EC50 was below 100 nM.

Consider `Cc1sc2c(c1C)C(c1ccc(Cl)cc1)=N[C@@H](CC(=O)NC1CCN(CC#CC#CC3CCN(CCOCCOCCOCCNC(=O)CCNC(=O)c4nc(NC(=O)CCNC(=O)c5cc(NC(=O)c6nc(NC(=O)CCNC(=O)c7cc(NC(=O)c8nccn8C)cn7C)cn6C)cn5C)cn4C)CC3)CC1)c1nnc(C)n1-2` [Compound 156], for which the EC50 was below 100 nM.

Take `Cc1sc2c(c1C)C(c1ccc(Cl)cc1)=N[C@@H](CC(=O)NC1CCN(CC#CC#CC3CCN(CCOCCOCCOCCOCCOCCOCCOCCNC(=O)CCNC(=O)c4nc(NC(=O)CCNC(=O)c5cc(NC(=O)c6nc(NC(=O)CCNC(=O)c7cc(NC(=O)c8nccn8C)cn7C)cn6C)cn5C)cn4C)CC3)CC1)c1nnc(C)n1-2` [Compound 157]: the EC50 was below 100 nM.

Regarding `Cc1cc(F)cc(C)c1Oc1ccc(C(C)(C)O)cc1-c1cn(C)c(=O)c2[nH]c(C(=O)NC3CCN(CC#CC#CC4CCN(CCOCCOCCOCCOCCOCCNC(=O)CCNC(=O)c5nc(NC(=O)CCNC(=O)c6cc(NC(=O)c7nc(NC(=O)CCNC(=O)c8cc(NC(=O)c9nccn9C)cn8C)cn7C)cn6C)cn5C)CC4)CC3)cc12` [Compound 158], the EC50 was below 100 nM.

Consider `Cc1sc2c(c1C)C(c1ccc(Cl)cc1)=N[C@@H](CC(=O)NC1CCN(C(C)(C)C#CC#CCNCCOCCOCCOCCOCCOCCNC(=O)CCNC(=O)c3nc(NC(=O)CCNC(=O)c4cc(NC(=O)c5nc(NC(=O)CCNC(=O)c6cc(NC(=O)c7nccn7C)cn6C)cn5C)cn4C)cn3C)CC1)c1nnc(C)n1-2` [Compound 159], for which the EC50 is below 100 nM.
